Consider 16 compounds from ChEMBL document CHEMBL1201862, “PubChem BioAssay data set” (2004).

Activity calls are given as the source filed them.

The subject of test [1] is Vero. The test is described as follows: cells. The class given is functional. The conditions noted are these: Chlorocebus sabaeus.
In test [2] the test system is Vero. The test is described as follows: cells. The class given is functional, cell-based. Conditions: Chlorocebus sabaeus.
In test [3] the test system is Escherichia coli. Nature of the test: microbe, parasite or virus in culture.
The subject of test [4] is A-375. The test is described as follows: MITF: Counter assay: A375 proliferation Measured in Cell-Based System Using Plate Reader - 2084-03_Inhibitor_Dose_DryPowder_Activity. [Related pubchem assays (depositor defined):AID488944]. The class given is functional. The conditions noted are these: Homo sapiens.
For test [5], the system named is A-375. The test is described as follows: A375 melanoma cell viability reduction, dose response, counter-screen for MITF modulator project, cherry-pick samples, set 2 (AID 540335). The class given is functional, cell-based. Conditions: Homo sapiens.
In test [6] the test system is Escherichia coli. Nature of the test: microbe, parasite or virus in culture. The source holds these as a separate data set.
The next test concerns the target Trypsin (Sus scrofa, UniProt P00761). Nature of the test: porcine trypsin inhibitors, dose response, selectivity assay for Rce1 protease inhibitor project, biochemical, quenched peptide fluorescence, cherry-pick (AID 488789).
A further test deals with CAAX prenyl protease 2 (Homo sapiens, UniProt Q9Y256). Nature of the test: human Rce1 protease inhibitors, dose response, biochemical, yeast membranes, quenched-peptide fluorescence, cherry-pick (AID 588849).
CAAX prenyl protease 2, sequence (Q9Y256 whole entry): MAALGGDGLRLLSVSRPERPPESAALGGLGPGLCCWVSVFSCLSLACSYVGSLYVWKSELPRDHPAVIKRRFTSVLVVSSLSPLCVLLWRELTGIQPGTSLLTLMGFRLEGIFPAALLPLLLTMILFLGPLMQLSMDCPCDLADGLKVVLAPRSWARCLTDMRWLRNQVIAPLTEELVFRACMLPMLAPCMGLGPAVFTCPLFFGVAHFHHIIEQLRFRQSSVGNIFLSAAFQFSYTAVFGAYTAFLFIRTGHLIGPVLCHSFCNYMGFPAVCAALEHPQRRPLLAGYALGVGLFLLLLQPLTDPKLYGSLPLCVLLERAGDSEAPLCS
In another test the test system is INS1. The test is described as follows: protection of INS-1E cells from cytokine death, dose response, ATP luminescence, dry powder (AID 488844). The class given is functional, cell-based. Conditions: Rattus norvegicus.
The target of test [7] is Dual specificity protein kinase CLK1 (Homo sapiens, UniProt P49759). The test is described as follows: CLK1 kinase inhibitors, off-target check, dose response, selectivity assay for Dyrk1A inhibitor project, biochemical, cherry-picked samples (AID 588811).
Dual specificity protein kinase CLK1, sequence (P49759 whole entry): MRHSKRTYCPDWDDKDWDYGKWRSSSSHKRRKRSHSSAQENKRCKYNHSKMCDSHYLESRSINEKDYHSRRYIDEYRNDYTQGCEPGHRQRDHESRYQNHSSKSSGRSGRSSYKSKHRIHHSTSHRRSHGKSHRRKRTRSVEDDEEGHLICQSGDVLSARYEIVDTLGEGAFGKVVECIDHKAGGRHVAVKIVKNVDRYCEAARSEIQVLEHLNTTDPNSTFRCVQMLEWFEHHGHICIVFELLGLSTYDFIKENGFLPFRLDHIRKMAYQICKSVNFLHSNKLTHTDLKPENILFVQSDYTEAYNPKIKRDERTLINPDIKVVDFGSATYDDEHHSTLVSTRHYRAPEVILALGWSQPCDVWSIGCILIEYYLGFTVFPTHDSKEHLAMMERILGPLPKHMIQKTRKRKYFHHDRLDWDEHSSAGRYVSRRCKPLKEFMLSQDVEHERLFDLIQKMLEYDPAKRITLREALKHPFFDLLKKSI
Test [8] can be described thus: inhibitors of intracellular T. cruzi replication, confirmation, NIH3T3 host cells, beta-gal luminescence (AID 2044).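 Also: intracellular parasites grown in NIH/3T3 mouse fibroblasts as host cells; luminescent beta-galactosidase reporter signal from transgenic T. cruzi replicating inside host cells; inhibitors lower the luminescence signal.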 The class given is functional, cell-based.
Test [9] in a line: cytotoxicity toward NIH3T3 fibroblasts, dose response, counter-screen, cell-based, ATP luminescence, mouse fibroblasts (AID 2010).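 Also: cells exposed to compound for about 90 hours before reading.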 In kind it is functional.
Test [10] concerns the target T1, Alkaline phosphatase, tissue-nonspecific isozyme (Homo sapiens, UniProt P05186).
T1 sequence (P05186 whole entry): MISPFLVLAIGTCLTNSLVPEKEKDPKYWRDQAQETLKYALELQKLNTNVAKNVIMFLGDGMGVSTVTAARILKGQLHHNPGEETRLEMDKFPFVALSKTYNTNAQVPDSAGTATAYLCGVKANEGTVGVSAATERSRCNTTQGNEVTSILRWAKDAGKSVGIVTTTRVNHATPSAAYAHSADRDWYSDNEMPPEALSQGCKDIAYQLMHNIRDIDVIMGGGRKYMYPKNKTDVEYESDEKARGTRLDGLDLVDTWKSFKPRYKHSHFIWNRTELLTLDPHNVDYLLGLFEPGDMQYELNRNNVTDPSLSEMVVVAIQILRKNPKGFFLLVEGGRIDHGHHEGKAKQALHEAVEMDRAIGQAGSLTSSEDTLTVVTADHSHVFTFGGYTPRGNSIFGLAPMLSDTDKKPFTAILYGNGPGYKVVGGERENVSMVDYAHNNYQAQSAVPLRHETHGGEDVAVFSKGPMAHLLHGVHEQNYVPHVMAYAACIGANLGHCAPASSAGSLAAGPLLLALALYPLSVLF
Nature of the test: TNAP enzyme inhibition by screening hits, dose response, selectivity assay for mouse IAP inhibitor project, biochemical, human TNAP, uHTS hits (AID 488906). The class given is functional.

The target in test [11] is Intestinal-type alkaline phosphatase (Homo sapiens, UniProt P09923). Nature of the test: inhibition of human intestinal alkaline phosphatase – biochemical, dose response (AID 488876). In kind it is functional.
Intestinal-type alkaline phosphatase (Homo sapiens, UniProt P09923), sequence (P09923 whole entry): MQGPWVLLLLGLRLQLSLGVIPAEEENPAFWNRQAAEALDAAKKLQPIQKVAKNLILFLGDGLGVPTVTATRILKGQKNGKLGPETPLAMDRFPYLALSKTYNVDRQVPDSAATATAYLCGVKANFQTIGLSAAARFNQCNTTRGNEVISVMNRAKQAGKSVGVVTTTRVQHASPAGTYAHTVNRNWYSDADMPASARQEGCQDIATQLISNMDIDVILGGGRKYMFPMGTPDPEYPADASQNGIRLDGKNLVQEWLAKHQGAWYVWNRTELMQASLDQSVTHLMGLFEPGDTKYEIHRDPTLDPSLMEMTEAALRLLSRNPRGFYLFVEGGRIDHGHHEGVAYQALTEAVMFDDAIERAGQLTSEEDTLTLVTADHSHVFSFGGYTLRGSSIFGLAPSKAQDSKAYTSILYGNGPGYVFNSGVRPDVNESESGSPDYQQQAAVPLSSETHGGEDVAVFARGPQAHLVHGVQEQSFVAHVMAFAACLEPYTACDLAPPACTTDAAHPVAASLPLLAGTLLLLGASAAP
Test [12] addresses T2, Probable nicotinate-nucleotide adenylyltransferase (Staphylococcus aureus (strain N315), UniProt P65502). In kind it is functional, Staphylococcus aureus subsp. aureus N315. The conditions noted are these: read-out: IC50_Mean.
Another test has as its system H9c2. The test is described as follows: cells. The class given is functional, cell-based. The conditions noted are these: Rattus norvegicus, H9c2, Myocardium.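 Also: confirmatory concentration-response retest of ultra-high-throughput screening hits for modulation of myocardial damage; cell death induced by hydrogen peroxide oxidative stress; compound pretreatment for 60 min then peroxide exposure for 2 h; potency is for protecting the cells against peroxide damage rather than for killing them.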
Test [13] addresses T2, Probable nicotinate-nucleotide adenylyltransferase. In kind it is functional, Staphylococcus aureus subsp. aureus N315.
Test [14] addresses Intestinal-type alkaline phosphatase (Mus musculus, UniProt P24822). The test is described as follows: PubChem AID 488785. In kind it is functional.
A further test deals with T3, Protein skinhead-1 (Caenorhabditis elegans, UniProt P34707).
T3 sequence (P34707 whole entry): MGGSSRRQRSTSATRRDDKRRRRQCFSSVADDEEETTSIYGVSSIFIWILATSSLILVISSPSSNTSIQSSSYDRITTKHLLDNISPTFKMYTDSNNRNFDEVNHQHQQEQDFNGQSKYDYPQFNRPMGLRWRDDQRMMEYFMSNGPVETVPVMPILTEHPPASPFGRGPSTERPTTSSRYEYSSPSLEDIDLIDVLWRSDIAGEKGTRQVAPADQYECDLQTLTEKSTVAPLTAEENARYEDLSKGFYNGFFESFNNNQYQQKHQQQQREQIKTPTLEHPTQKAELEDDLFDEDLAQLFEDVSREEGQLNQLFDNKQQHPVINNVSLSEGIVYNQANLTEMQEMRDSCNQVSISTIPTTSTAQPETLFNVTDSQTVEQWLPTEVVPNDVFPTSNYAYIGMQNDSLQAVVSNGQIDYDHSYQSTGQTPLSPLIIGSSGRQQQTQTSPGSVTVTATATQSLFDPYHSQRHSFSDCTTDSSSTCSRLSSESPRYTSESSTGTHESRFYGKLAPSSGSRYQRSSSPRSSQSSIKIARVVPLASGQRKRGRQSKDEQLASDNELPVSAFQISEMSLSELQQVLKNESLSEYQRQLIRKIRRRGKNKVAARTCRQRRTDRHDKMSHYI
The class given is functional.

For another test, the target named is Albumin (Bos taurus, UniProt P02769). Nature of the test: Counterscreen for inhibitors of T-cell receptor (TCR)-CD3 interaction: Fluorescence-based biochemical high throughput dose response assay to identify inhibitors of T-cell receptor (TCR)-CD3 interaction using a TAMRA-labeled BSA probe. In kind it is functional.
Albumin, sequence (P02769 whole entry): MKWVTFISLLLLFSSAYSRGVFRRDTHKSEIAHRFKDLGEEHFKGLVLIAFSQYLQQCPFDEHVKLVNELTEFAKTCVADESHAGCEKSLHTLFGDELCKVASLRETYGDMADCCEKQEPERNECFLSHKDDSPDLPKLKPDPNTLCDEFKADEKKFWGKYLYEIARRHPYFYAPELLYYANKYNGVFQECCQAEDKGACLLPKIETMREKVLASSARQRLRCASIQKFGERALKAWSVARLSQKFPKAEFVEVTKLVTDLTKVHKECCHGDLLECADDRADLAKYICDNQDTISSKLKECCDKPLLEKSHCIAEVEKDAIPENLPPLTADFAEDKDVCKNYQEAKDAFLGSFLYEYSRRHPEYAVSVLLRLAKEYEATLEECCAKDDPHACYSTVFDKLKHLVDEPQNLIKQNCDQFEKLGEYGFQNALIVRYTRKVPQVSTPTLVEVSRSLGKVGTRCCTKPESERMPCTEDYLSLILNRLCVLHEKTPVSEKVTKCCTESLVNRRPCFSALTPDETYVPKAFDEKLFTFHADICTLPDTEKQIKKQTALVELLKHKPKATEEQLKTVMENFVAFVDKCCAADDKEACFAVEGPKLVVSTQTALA
Test [15] has as its target T4, Short transient receptor potential channel 4 (Mus musculus, UniProt Q9QUQ5).
T4 sequence (Q9QUQ5 whole entry): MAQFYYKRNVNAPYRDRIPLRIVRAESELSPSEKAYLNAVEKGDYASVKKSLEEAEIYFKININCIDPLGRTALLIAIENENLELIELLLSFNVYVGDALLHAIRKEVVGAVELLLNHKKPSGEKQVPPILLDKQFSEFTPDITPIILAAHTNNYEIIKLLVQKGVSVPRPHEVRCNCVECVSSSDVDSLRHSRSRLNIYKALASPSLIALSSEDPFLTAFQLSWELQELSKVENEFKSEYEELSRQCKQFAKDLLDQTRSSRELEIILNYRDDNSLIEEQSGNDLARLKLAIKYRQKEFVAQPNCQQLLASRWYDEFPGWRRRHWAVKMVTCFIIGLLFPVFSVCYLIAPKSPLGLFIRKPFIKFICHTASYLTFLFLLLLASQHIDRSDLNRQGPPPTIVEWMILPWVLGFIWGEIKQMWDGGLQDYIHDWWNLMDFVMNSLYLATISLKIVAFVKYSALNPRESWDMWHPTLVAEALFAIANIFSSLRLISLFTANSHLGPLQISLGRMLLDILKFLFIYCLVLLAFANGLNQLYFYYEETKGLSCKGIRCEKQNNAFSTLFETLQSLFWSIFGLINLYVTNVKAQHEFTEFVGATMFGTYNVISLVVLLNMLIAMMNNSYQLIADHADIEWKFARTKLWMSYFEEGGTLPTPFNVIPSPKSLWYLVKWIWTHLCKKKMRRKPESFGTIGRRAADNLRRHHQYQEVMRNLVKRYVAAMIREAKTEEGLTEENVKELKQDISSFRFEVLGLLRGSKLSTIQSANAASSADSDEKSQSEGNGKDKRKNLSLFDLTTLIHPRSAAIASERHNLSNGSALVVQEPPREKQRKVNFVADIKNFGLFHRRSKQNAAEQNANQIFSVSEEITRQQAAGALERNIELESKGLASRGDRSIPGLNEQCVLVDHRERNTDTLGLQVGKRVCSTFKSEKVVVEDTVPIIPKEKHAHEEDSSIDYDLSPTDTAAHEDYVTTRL
Nature of the test: mouse TRPC4 channel activators, dose response, cell-based, HEK293 TRPC4/mu-opioid, Fluo-4 calcium (AID 434937). In kind it is functional.

The target of test [16] is Delta-type opioid receptor (Homo sapiens, UniProt P41143). Nature of the test: Counterscreen for agonists of heterodimerization of the mu 1 (OPRM1) and delta 1 (OPRD1) opioid receptors: Luminescence-based cell-based high throughput dose response assay to identify agonists of OPRD1 homodimerization. [Related pubchem assays (depositor defined):AID504326, AID504355, AID504692, AID504904, AID504905]. In kind it is functional.
Delta-type opioid receptor, sequence (P41143 whole entry): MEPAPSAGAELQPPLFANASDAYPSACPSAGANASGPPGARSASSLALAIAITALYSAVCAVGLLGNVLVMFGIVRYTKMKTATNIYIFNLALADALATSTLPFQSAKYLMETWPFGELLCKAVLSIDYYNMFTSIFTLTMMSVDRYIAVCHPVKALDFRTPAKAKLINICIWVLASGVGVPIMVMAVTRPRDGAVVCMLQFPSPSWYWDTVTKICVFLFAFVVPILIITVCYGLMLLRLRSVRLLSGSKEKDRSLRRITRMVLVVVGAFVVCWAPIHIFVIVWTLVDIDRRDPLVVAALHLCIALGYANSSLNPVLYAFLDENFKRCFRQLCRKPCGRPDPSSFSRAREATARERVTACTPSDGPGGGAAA

The target of a further test is Mu-type opioid receptor (Homo sapiens, UniProt P35372). The test is described as follows: Counterscreen for agonists of heterodimerization of the mu 1 (OPRM1) and delta 1 (OPRD1) opioid receptors: Luminescence-based cell-based high throughput dose response assay to identify agonists of OPRM1 homodimerization. The class given is functional.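 Also: U2OS cells expressing OPRM1 and beta-arrestin as split beta-galactosidase partners.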
Mu-type opioid receptor, sequence (P35372 whole entry): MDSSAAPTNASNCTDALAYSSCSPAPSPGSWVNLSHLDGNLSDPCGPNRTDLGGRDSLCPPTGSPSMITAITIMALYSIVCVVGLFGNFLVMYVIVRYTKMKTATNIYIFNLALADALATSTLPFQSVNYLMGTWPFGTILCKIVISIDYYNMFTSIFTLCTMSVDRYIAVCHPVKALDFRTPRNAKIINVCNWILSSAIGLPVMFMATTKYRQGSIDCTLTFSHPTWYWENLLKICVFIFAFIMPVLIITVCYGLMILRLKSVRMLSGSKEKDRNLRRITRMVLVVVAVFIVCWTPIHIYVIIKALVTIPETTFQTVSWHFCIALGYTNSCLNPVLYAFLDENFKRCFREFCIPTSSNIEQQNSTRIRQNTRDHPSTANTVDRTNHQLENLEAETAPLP
Test [17] addresses 5-hydroxytryptamine receptor 5A (Homo sapiens, UniProt P47898). Nature of the test: Counterscreen for agonists of OPRM1-OPRD1 heterodimerization: luminescence-based cell-based high throughput dose response assay to identify agonists of 5-hydroxytryptamine (serotonin) 5A receptor (HTR5A). [Related pubchem assays (depositor defined):AID504326, AID504355, AID504692, AID504904, AID504905]. In kind it is functional.

A further test has as its target Nonstructural protein 1 (Influenza A virus, UniProt Q194T2). The class given is functional, Influenza A virus (A/California/07/2009(H1N1)).
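For IC50 Mean in this document: confirmatory dose-response retesting of NadD inhibitor hits first found in an ultra-high-throughput screen.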

Intestinal-type alkaline phosphatase (Mus musculus, UniProt P24822), sequence (P24822 whole entry): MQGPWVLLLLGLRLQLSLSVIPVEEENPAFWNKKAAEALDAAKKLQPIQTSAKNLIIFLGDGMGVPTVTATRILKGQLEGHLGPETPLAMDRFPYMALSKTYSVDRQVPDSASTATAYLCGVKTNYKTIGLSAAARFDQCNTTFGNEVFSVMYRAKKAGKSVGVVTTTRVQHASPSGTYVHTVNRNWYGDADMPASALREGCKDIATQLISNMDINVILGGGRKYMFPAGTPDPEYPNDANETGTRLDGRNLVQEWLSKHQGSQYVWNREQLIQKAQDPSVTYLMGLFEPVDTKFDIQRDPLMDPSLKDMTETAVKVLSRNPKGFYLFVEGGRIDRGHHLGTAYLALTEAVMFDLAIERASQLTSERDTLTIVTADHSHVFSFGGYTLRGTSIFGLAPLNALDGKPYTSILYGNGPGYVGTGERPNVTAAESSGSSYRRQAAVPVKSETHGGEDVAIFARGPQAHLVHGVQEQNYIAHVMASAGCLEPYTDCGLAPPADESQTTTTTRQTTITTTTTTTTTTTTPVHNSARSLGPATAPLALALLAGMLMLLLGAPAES
T2 sequence (P65502 whole entry): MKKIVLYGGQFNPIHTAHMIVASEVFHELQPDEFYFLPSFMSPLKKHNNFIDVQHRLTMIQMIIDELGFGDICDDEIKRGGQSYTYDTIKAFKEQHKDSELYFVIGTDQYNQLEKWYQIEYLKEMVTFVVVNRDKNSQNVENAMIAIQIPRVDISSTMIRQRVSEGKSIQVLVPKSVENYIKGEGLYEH
5-hydroxytryptamine receptor 5A, sequence (P47898 whole entry): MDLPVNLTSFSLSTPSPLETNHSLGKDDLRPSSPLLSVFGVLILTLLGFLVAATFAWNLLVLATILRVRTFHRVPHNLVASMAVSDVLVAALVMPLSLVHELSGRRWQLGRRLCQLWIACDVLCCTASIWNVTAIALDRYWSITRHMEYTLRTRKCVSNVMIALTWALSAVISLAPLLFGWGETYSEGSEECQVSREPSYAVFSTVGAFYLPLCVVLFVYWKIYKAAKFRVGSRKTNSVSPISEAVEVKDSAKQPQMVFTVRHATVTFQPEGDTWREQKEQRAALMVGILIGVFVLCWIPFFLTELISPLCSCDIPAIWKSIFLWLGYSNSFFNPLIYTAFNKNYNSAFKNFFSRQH
Nonstructural protein 1, sequence (Q194T2 whole entry): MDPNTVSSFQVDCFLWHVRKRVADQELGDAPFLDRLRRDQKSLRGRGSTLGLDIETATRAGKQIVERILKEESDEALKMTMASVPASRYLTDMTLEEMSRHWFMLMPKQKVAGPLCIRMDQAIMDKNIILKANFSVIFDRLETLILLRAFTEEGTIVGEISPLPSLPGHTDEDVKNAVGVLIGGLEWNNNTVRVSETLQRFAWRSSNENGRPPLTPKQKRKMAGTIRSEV
Trypsin, sequence (P00761 whole entry): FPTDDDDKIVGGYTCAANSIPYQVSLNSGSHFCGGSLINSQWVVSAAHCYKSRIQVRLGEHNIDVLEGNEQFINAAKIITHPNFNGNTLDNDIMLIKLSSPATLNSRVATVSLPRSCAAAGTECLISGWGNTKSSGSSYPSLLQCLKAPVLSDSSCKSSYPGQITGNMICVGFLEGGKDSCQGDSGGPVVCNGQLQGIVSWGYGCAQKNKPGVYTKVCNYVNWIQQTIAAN

As to `CCN(C(=O)CCN1C(=O)/C(=C/c2ccccc2)SC1=S)C1CCS(=O)(=O)C1` (stereo unspecified), the CC50 with Vero [1] was 22.1 µM (active). In addition, the IC50 in the test with Vero [2] was > 25 µM (active).
With `O=C(CSC1=NCCS1)c1ccc(Cl)cc1`, the AC50 in the test with Escherichia coli [3] is 28 µM (active).
`O=C(NCc1ccc2c(c1)OCO2)c1cc(O)nc2ccccc12`: the AC50 in the test on A-375 [4] and in the test with A-375 [5] was > 35 µM (active) throughout.
In the case of `C=CCn1c(SCC(=O)NCc2ccc3c(c2)OCO3)nnc1-c1cccnc1`, in the test with Escherichia coli [6], the AC50 was 50.2 µM (active).
Consider `Cc1cc(=O)oc2c3c(cc(OCC(=O)N4CCC(C(=O)O)CC4)c12)OC(C)(C)CC3`, for which the results for the AC50 at Trypsin and at CAAX prenyl protease 2 were 1.51 µM (active) and 1.28 µM (active), respectively.
On to `COc1ccc(S(=O)(=O)N(C)C[C@@H]2Oc3c(NC(=O)c4cc(C)nn4C)cccc3C(=O)N([C@@H](C)CO)C[C@H]2C)cc1`, for which the AC50 with INS1 is > 260 µM (inactive).
On to `CC(Nc1nc(-c2cccnc2)nc2ccccc12)c1ccc(F)cc1` (stereo unspecified), for which the AC50 in [7] was 9.34 µM (active). For the same compound, the EC50 in test [8] is 0.658 µM (active); in test [9] it was 14.4 µM (active).
For `O=C(NNC(=O)c1cc2cc(Br)ccc2oc1=O)c1ccc(O)cc1O`, the IC50 in test [10] was > 100 µM (inactive); in [11], > 100 µM (inactive); in test [12], 44.7 µM (active); with H9c2, > 79 µM (inactive); in test [13] it was 16.3 µM (active); in [14], 12.9 µM (active).
Regarding `Clc1ccc(-c2nc3cc(CN4CCCCC4)ccc3o2)cc1`, the figures for the IC50 at Protein skinhead-1 and with Vero [2] were 4.15 µM (active) and > 25 µM (active), respectively. Moreover, the CC50 with Vero [1] is > 25 µM (active).
Take `CCOC(=O)c1c(-c2ccc(OC)cc2)oc2ccc(OC(=O)N(C)C)cc12`: the AC50 at CAAX prenyl protease 2 was 6.46 µM (active).
With `COc1cc(/C=N/NC(=O)c2cc(O)cc(O)c2)ccc1OC(=O)c1ccccc1`, the IC50 in [10] was 26.8 µM (active); on Albumin it was > 94.1 µM (inactive); in test [11], 77.1 µM (active); in [14], 4.43 µM (active).
With `Cc1ccc(CNc2ncnc3ccc(-c4ccc5c(c4)OCO5)cc23)o1`, the AC50 in [7] is 0.0226 µM (active).
As for `CN(C)CCCN(C(=O)c1ccc(S(=O)(=O)N2CCCCCC2)cc1)c1nc2c(F)cc(F)cc2s1`, the concentration for a half-maximal effect (EC50) in test [15] was 5.31 µM (active); in test [16] it was > 92.4 µM (inactive); at Mu-type opioid receptor, 33.4 µM (inactive); in [17] it was > 92.4 µM (inactive).
Take `O=C(NCc1ccco1)c1ccc(COCC(F)(F)F)cc1`: the AC50 with A-375 [4] and with A-375 [5] was > 35 µM (active) throughout.
In the case of `Cc1ccccc1OCC(=O)Nc1nnc(-c2ccncc2)s1`, in the test on Escherichia coli [6], the AC50 is 39.7 µM (active).
For `Cc1cc(N2CCN(C)CC2)ccc1NC(=O)c1ccc(-c2ccc(Cl)cc2)o1`, the EC50 in test [15] is 0.749 µM (active); in test [16] it was > 92.4 µM (inactive); on Mu-type opioid receptor, > 92.4 µM (inactive); in [8] it was 0.254 µM (active); in test [9], 9.64 µM (active); in test [17] it was > 92.4 µM (inactive). For the same compound, the IC50 on Nonstructural protein 1 is 44 µM (active).
